Assay results taken from the supplement of paper PMC12463676, “Small-molecule dissolution of stress granules by redox modulation benefits ALS models” (Nature Chemical Biology, 2025).

How the values were obtained:
lipoamide = compound: NC(=O)CCCCC1CCSS1 [lipoamide]; test: thermal stability z-score vs DMSO; higher = more thermally stabilized by treatment; settings: HeLa, lipoamide concentration 100 µM
Procedure: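 Cellular thermal proteome profiling in HeLa cells. Cells were treated with 100 µM lipoamide for 1 h, with or without 1 mM arsenate for a further 1 h, then heated to ten temperatures (37-66.3 °C), and soluble protein was quantified by TMT mass spectrometry relative to 0.1% DMSO controls. The thermal stability score (sum of log2 fold changes minus the abundance score) was transformed to a z-score; mean of n = 3 experiments.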

potassium arsenate = compound: O=[As]([O-])(O)O.[K+] [potassium arsenate]; test: as above; settings: HeLa; arsenate concentration 1 mM
Procedure: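 Cellular thermal proteome profiling in HeLa cells treated with 1 mM arsenate for 1 h (DMSO pretreatment), heated to ten temperatures (37-66.3 °C). Soluble protein was quantified by TMT mass spectrometry relative to DMSO controls; the thermal stability score was transformed to a z-score; mean of n = 3 experiments.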

[1] = arsenate co-treatment: 1 mM arsenate 1 h
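Also: each temperature applied for 3 min, abundance score taken as mean log2 fold change at the two lowest temperatures, z-score obtained by mean subtraction and division by SD.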

Target: HSD17B8 (UniProt Q92506)
Chain of UniProt Q92506 (Q92506 whole entry): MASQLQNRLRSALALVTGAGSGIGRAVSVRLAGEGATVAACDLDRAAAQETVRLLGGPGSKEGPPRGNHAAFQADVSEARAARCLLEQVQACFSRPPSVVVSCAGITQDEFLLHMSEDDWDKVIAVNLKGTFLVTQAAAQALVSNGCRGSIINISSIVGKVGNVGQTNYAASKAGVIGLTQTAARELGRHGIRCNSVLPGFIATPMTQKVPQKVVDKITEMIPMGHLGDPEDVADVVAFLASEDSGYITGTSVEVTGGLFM
- thermal stability z-score (lipoamide; [1]): 0.281
- thermal stability z-score (lipoamide; arsenate co-treatment: none): 0.0946
- thermal stability z-score (potassium arsenate): -0.785

Target: CISD2 (UniProt Q8N5K1)
Chain of UniProt Q8N5K1 (Q8N5K1 whole entry): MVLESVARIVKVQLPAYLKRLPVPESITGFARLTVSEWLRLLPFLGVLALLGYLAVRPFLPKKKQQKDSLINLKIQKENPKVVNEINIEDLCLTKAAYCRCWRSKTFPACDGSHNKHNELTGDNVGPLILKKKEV
- thermal stability z-score (lipoamide; [1]): 0.556
- thermal stability z-score (lipoamide; arsenate co-treatment: none): 0.316
- thermal stability z-score (potassium arsenate): -0.581

Target: ALDH1A3 (UniProt P47895)
- thermal stability z-score (lipoamide; [1]): 0.622
- thermal stability z-score (lipoamide; arsenate co-treatment: none): 0.25
- thermal stability z-score (potassium arsenate): -0.284

Target: POFUT1 (UniProt Q9H488)
- thermal stability z-score (lipoamide; [1]): -3.78
- thermal stability z-score (lipoamide; arsenate co-treatment: none): -3.17
- thermal stability z-score (potassium arsenate): 1.06

Target: CMAS (UniProt Q8NFW8)
Chain of UniProt Q8NFW8 (Q8NFW8 whole entry): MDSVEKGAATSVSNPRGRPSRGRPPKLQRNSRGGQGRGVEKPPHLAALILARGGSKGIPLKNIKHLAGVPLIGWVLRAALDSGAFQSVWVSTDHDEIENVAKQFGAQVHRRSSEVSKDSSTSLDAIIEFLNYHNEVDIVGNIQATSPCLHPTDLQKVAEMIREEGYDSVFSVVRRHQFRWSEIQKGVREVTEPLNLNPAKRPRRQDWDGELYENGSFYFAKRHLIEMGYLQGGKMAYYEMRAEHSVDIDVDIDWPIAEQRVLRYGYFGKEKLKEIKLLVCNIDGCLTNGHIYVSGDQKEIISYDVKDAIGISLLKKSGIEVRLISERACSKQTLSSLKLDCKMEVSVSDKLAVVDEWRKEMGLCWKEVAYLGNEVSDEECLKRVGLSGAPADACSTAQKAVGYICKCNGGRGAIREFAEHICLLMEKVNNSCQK
- thermal stability z-score (lipoamide; [1]): -0.0844
- thermal stability z-score (lipoamide; arsenate co-treatment: none): -0.141
- thermal stability z-score (potassium arsenate): -0.438

Target: GNAS
- thermal stability z-score (lipoamide; [1]): 0.278
- thermal stability z-score (lipoamide; arsenate co-treatment: none): 0.172
- thermal stability z-score (potassium arsenate): 0.0562

Target: SLC38A10 (UniProt Q9HBR0)
Chain of UniProt Q9HBR0 (Q9HBR0 whole entry): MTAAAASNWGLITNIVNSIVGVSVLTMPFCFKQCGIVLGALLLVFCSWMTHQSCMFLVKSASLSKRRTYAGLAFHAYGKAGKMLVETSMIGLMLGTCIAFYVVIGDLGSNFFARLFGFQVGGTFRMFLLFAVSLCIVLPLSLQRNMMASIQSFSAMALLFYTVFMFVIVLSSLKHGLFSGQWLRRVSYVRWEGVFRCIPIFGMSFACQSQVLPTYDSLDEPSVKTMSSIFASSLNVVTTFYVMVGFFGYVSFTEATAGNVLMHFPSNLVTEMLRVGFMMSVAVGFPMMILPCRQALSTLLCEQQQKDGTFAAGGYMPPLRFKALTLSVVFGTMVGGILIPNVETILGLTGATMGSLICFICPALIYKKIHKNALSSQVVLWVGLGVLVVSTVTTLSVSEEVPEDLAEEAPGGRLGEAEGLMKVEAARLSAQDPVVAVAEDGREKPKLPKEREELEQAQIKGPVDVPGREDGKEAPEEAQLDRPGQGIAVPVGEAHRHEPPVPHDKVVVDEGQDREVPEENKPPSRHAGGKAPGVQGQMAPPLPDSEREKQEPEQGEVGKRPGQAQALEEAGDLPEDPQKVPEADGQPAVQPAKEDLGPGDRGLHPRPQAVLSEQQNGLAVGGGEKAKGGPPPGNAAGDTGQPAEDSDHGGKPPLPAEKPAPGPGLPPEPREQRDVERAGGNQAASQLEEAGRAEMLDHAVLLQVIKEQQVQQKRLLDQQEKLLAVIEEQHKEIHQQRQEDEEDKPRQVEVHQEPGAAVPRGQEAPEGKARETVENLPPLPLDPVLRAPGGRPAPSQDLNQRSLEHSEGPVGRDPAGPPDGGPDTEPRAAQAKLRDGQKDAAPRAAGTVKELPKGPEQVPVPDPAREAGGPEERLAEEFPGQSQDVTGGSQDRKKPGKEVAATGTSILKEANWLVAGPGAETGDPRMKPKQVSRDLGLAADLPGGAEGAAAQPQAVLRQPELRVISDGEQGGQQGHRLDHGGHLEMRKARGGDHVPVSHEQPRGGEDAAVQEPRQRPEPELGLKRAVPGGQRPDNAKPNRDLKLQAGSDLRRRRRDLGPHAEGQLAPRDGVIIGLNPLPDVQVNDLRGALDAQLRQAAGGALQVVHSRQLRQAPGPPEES
- thermal stability z-score (lipoamide; [1]): 0.639
- thermal stability z-score (lipoamide; arsenate co-treatment: none): 0.226
- thermal stability z-score (potassium arsenate): -0.0408

Target: SQLE (UniProt Q14534)
Chain of UniProt Q14534 (Q14534 whole entry, looked up): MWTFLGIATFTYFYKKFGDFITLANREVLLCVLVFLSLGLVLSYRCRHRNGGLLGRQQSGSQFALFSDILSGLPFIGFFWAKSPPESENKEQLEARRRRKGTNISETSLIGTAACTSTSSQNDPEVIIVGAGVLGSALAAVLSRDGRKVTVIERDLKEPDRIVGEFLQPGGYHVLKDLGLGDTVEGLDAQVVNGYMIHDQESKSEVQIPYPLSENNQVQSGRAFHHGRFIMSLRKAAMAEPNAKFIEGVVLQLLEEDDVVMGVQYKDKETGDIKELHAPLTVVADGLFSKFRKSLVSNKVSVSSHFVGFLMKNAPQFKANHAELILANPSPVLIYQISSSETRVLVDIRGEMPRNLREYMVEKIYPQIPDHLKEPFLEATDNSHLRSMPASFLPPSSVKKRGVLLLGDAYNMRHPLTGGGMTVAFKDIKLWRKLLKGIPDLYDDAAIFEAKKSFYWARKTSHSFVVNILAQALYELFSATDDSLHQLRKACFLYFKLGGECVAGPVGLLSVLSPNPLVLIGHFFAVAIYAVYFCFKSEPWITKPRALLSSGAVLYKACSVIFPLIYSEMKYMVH
- thermal stability z-score (lipoamide; [1]): 0.647
- thermal stability z-score (lipoamide; arsenate co-treatment: none): 1.27
- thermal stability z-score (potassium arsenate): 0.26

Target: DDI2 (UniProt Q5TDH0)
Chain of UniProt Q5TDH0 (Q5TDH0 whole entry): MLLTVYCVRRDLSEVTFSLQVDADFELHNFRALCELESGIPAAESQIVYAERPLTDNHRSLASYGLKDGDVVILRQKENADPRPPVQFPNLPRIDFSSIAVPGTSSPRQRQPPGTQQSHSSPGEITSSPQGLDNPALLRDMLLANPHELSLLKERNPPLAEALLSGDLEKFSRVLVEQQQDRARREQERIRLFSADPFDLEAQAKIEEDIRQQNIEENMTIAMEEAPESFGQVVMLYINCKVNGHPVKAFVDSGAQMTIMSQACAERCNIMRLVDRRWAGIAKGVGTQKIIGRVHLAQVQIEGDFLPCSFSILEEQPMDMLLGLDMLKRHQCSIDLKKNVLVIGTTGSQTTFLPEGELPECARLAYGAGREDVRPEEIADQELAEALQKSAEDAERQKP
- thermal stability z-score (lipoamide; [1]): -0.174
- thermal stability z-score (lipoamide; arsenate co-treatment: none): -0.209
- thermal stability z-score (potassium arsenate): -0.217

Target: SNTB2 (UniProt Q13425)
- thermal stability z-score (lipoamide; [1]): 0.14
- thermal stability z-score (lipoamide; arsenate co-treatment: none): -0.309
- thermal stability z-score (potassium arsenate): -0.227

Target: PRDX6 (UniProt P30041)
- thermal stability z-score (lipoamide; [1]): 0.00439
- thermal stability z-score (lipoamide; arsenate co-treatment: none): 0.281
- thermal stability z-score (potassium arsenate): 0.144

Target: TBC1D4 (UniProt O60343)
Chain of UniProt O60343 (O60343 whole entry): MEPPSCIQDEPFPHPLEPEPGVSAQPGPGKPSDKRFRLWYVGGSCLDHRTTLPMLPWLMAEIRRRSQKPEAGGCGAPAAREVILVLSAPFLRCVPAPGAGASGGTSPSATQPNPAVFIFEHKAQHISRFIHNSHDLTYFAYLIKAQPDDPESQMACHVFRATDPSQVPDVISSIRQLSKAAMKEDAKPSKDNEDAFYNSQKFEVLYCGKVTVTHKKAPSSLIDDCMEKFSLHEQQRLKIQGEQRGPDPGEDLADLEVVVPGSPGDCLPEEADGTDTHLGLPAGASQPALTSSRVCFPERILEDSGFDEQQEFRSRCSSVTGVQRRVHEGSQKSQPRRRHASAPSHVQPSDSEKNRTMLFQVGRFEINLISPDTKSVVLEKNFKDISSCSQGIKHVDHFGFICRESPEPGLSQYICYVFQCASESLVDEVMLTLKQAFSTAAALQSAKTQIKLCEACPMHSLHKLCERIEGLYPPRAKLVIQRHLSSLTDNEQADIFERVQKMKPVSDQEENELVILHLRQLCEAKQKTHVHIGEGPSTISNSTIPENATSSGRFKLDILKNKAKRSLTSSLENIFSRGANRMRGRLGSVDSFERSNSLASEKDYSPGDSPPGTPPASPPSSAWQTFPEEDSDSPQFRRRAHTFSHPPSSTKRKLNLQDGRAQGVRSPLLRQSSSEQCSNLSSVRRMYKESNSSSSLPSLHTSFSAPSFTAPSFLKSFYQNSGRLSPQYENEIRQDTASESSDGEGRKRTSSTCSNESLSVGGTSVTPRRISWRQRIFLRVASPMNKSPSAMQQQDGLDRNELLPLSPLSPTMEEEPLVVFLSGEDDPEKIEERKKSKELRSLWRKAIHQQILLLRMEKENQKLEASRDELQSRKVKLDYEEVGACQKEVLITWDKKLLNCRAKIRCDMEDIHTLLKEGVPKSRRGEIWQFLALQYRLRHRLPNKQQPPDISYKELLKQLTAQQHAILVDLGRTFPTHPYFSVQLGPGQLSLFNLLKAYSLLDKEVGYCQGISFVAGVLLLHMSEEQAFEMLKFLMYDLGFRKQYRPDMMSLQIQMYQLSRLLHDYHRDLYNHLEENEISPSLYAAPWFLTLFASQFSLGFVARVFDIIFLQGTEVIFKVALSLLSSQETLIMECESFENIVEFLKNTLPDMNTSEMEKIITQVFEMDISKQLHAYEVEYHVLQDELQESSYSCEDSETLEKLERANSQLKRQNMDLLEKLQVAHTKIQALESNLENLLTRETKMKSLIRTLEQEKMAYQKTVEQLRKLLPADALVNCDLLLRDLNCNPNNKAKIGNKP
- thermal stability z-score (lipoamide; [1]): -0.14
- thermal stability z-score (lipoamide; arsenate co-treatment: none): 0.292
- thermal stability z-score (potassium arsenate): 0.51

Target: RAB11FIP5 (UniProt Q9BXF6)
- thermal stability z-score (lipoamide; [1]): 0.135
- thermal stability z-score (lipoamide; arsenate co-treatment: none): -1.43
- thermal stability z-score (potassium arsenate): 0.895

Target: PTEN (UniProt P60484)
- thermal stability z-score (lipoamide; [1]): -0.0735
- thermal stability z-score (lipoamide; arsenate co-treatment: none): -0.0591
- thermal stability z-score (potassium arsenate): -0.185

Target: RPS4X (UniProt P62701)
- thermal stability z-score (lipoamide; [1]): 0.35
- thermal stability z-score (lipoamide; arsenate co-treatment: none): 0.0222
- thermal stability z-score (potassium arsenate): -0.997

Target: MAP7D1 (UniProt Q3KQU3)
- thermal stability z-score (lipoamide; [1]): 0.172
- thermal stability z-score (lipoamide; arsenate co-treatment: none): -0.0726
- thermal stability z-score (potassium arsenate): -0.702

Target: DYNLT3 (UniProt P51808)
- thermal stability z-score (lipoamide; [1]): 0.487
- thermal stability z-score (lipoamide; arsenate co-treatment: none): -0.208
- thermal stability z-score (potassium arsenate): -0.596

Target: TXNDC15 (UniProt Q96J42)
- thermal stability z-score (lipoamide; [1]): -1.92
- thermal stability z-score (lipoamide; arsenate co-treatment: none): -0.609
- thermal stability z-score (potassium arsenate): 1.16

Target: TANGO6 (UniProt Q9C0B7)
- thermal stability z-score (lipoamide; [1]): -0.908
- thermal stability z-score (lipoamide; arsenate co-treatment: none): -0.59
- thermal stability z-score (potassium arsenate): 0.475

Target: ENY2 (UniProt Q9NPA8)
- thermal stability z-score (lipoamide; [1]): 0.894
- thermal stability z-score (lipoamide; arsenate co-treatment: none): 0.42
- thermal stability z-score (potassium arsenate): 0.181

Target: IGSF3 (UniProt O75054)
- thermal stability z-score (lipoamide; [1]): 0.454
- thermal stability z-score (lipoamide; arsenate co-treatment: none): -0.247
- thermal stability z-score (potassium arsenate): -0.196

Target: MRPL46 (UniProt Q9H2W6)
- thermal stability z-score (lipoamide; [1]): -0.218
- thermal stability z-score (lipoamide; arsenate co-treatment: none): 0.1
- thermal stability z-score (potassium arsenate): -0.0514

Target: NTMT1 (UniProt Q9BV86)
- thermal stability z-score (lipoamide; [1]): -0.319
- thermal stability z-score (lipoamide; arsenate co-treatment: none): -0.204
- thermal stability z-score (potassium arsenate): -0.137

Target: DIAPH3 (UniProt Q9NSV4)
- thermal stability z-score (lipoamide; [1]): -1.4
- thermal stability z-score (lipoamide; arsenate co-treatment: none): -0.761
- thermal stability z-score (potassium arsenate): -0.0767

Target: DEGS1 (UniProt O15121)
Chain of UniProt O15121 (O15121 whole entry): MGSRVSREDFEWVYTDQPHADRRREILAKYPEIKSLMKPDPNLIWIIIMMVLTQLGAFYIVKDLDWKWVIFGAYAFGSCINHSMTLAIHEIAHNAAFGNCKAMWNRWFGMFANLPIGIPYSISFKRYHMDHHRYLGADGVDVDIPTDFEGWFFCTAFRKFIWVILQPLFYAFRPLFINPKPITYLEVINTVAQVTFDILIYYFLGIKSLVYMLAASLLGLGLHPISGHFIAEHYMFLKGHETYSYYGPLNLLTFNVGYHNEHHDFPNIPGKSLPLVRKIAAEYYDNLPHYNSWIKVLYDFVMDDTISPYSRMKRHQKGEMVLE
- thermal stability z-score (lipoamide; [1]): -0.756
- thermal stability z-score (lipoamide; arsenate co-treatment: none): -1.25
- thermal stability z-score (potassium arsenate): 0.212

Target: TM9SF3 (UniProt Q9HD45)
- thermal stability z-score (lipoamide; [1]): -0.451
- thermal stability z-score (lipoamide; arsenate co-treatment: none): -0.0174
- thermal stability z-score (potassium arsenate): 0.511

Target: BSG (UniProt P35613)
Chain of UniProt P35613 (P35613 whole entry): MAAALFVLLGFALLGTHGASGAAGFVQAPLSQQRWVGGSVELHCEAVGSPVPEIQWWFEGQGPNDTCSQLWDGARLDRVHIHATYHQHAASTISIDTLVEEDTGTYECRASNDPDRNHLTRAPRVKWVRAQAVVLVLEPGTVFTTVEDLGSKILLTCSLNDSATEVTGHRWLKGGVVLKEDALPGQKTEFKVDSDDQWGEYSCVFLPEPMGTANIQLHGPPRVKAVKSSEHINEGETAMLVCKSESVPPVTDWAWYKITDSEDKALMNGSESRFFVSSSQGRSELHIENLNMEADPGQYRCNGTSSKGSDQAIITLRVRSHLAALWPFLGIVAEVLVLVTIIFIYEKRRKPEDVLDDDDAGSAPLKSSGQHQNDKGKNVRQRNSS
- thermal stability z-score (lipoamide; [1]): 0.714
- thermal stability z-score (lipoamide; arsenate co-treatment: none): 0.573
- thermal stability z-score (potassium arsenate): 0.265

Target: LIMS1 (UniProt P48059)
- thermal stability z-score (lipoamide; [1]): -0.604
- thermal stability z-score (lipoamide; arsenate co-treatment: none): -0.589
- thermal stability z-score (potassium arsenate): -2.08

Target: TPP2 (UniProt P29144)
- thermal stability z-score (lipoamide; [1]): 0.657
- thermal stability z-score (lipoamide; arsenate co-treatment: none): 0.44
- thermal stability z-score (potassium arsenate): 0.194

Target: DIABLO (UniProt Q9NR28)
- thermal stability z-score (lipoamide; [1]): 0.979
- thermal stability z-score (lipoamide; arsenate co-treatment: none): 0.495
- thermal stability z-score (potassium arsenate): 0.154
